The record followed here is patent US12622910B2, “Inhibitors of Bruton's tyrosine kinase and methods of their use” (Janssen Pharmaceutica NV, priority 2021, dated 2026).

One series has as its system human IL-10. The series is described as follows: Circulating human IL-10 in serum of NSG mice with OCI-LY10 tumors. Format: in vivo. The source says:
FIG. 18 depicts circulating human IL-10 cytokine serum levels of mice treated with the compound of Formula (III). IL-10 cytokine levels are graphed as % normalized to vehicle control IL-10 levels ±SEM. Female NSG mice were implanted SC with OCI-LY10 cells on the right flank on Day 0. After tumors were established 39 days post implantation, mice were randomized into experimental groups and dosed orally with a single dose (n=5/dose level/time point). Serum samples were collected 2, 4, 8, 12, 16 and 24 hours after compound administration.
In Vivo Efficacy in ABC-DLBCL Xenograft and PDX Mouse Models of Lymphoma-To evaluate the effect of the compound of Formula (III) on NFκB signaling in vivo, we analyzed circulating human IL-10 levels in serum of NSG mice implanted with OCI-LY10 DLBCL tumors treated with 0, 1, 3, 10, 30 and 100 mg/kg compound of Formula (III) at 2, 4, 8, 12, 16 and 24 hours after single dose administration. Human IL-10 levels dropped to around 50% of vehicle control 2 hours after dosing, lowering even further after 4 hours to below 20%, 10% and 5% of vehicle control IL-10 levels in 10 mg/kg, 30 mg/kg and 100 mg/kg compound of Formula (III) treatment groups, respectively, and remaining low up to 12 hours. Some rebound to 23% of vehicle control levels for 30 mg/kg and 100 mg/kg and to 39% for the 10 mg/kg dosing group are observed 16 hours after compound administration, while IL-10 levels normalize after 24 hours (FIG. 18).

A short description of series [1]: Plasma protein binding, equilibrium dialysis. Format: in vitro ADME. As for the experimental part: Additional Data on Preclinical PK Profile—Protein binding of the compound of Formula (III) was studied using an equilibrium dialysis method in plasma from human, cynomolgus monkey, beagle dog, Sprague Dawley rat, CD-1 mouse, and guinea pig at 0.25, 2.5, and 25 μM. […] In human and monkey, the plasma protein binding was concentration dependent. […] Free fraction of the compound of Formula (III) in liver microsomes from various species ranged from 75.1% to 87.9% at 0.25 mg/mL and from 58.9% to 86.5% at 1.0 mg/mL (Table 17). […] In hepatocytes, the compound of Formula (III) turnover followed a similar trend, with T1/2 ranging from 75.3 minutes in monkey to 278.1 minutes in human.

For another series, the system named is B-cell activation. In words: Rat whole blood assay, anti-IgD-induced B-cell activation (CD86). Format: cell-based, Wistar rat. The conditions noted are these: anti-IgD stimulation, n=2, read-out: IC50, inhibition of B-cell activation in rat whole blood. The text has this:
The compound of Formula (III) Inhibits B-cell receptor activation—Rat whole blood assays were used to assess the ability of the compound of Formula (III) to inhibit activation of primary B cells in whole blood. The assay used anti-IgD stimulation to trigger B-cell activation. Cell activation in freshly isolated blood was quantified by staining for cell surface expression of B220 to identify B cells and a cell activation marker CD86.
Rat Whole Blood Assay-Anti-rat IgD was purchased from Bio-Rad AbD Serotec, Ltd. (Oxford, United Kingdom). Rat B220-PE and rat CD86-FITC were purchased from eBioscience (San Diego, CA). Lysing buffer was purchased from BD Biosciences (San Diego, CA). To determine the potency of each compound, inhibition of anti-IgD-induced activation of B cells in rat whole blood was assessed by flow cytometry. […]
Inhibition percentage was determined by the following equation: Inhibition %=(ActBstim−ActBcompound)×100/(ActBstim−ActBunstim), where […], ActBunstim, and ActBcompound refer to the percentage of activated B cells of the stimulated (no compound), unstimulated (no antibody), and compound treated wells, respectively. The IC50 for each compound was then calculated from the inhibition % of the titrations using a 4-PL fit. […]

Where [2] appears, read: CD-1, mouse, read-out: % Free in plasma.
[3] abbreviates: beagle, dog, read-out: % Free in plasma.
The mark [4] stands for this setting: cynomolgus monkey, read-out: % Free in plasma.

The structures appear in SMILES notation. Where two headings read alike, the source gives them in different places.

With `C=CC(=O)N[C@H]1CCC[C@H]1NC(=O)c1sc2nccc3c2c1NC(=O)N3c1cnc(CC(C)C)cc1C` (atropisomer, axis not shown) [compound of Formula (III), N-((1R,2S)-2-Acrylamidocyclopentyl)-5-(S)-(6-isobutyl-4-methylpyridin-3-yl)-4-oxo-4,5-dihydro-3H-1-thia-3,5,8-triazaacenaphthylene-2-carboxamide], the “human IL-10, % of vehicle control” value in the series on human IL-10 (10 mg/kg, 4 hours) is “below 20%”; in the series with human IL-10 (10 mg/kg, 16 hours), 39%; in the series on human IL-10 (30 mg/kg, 4 hours), under 10%; in the series with human IL-10 (30 mg/kg, 16 hours) it was 23%; with human IL-10 (100 mg/kg, 4 hours), under 5%; with human IL-10 (100 mg/kg, 16 hours), 23%. Also, the “human IL-10, % of vehicle control” value in the series on human IL-10 (2 hours after single oral dose) was “around 50%”. Also, the fraction unbound at 0.25 μM is 0.0192 in series [1] (setting [2]), 0.0688 in series [1] (setting [3]) and under 0.004 in series [1] (setting [4]). Also, the fraction unbound at 2.5 μM in series [1] (CD-1, mouse, 2.5 μM, read-out: % Free in plasma) is 0.024. The fraction unbound at 25 μM in series [1] (setting [2]) came out at 0.0335; in series [1] (setting [3]), 0.0685; in series [1] (setting [4]) it was 0.0532. The fraction unbound at 1 μM in series [1] (female, Wistar, rat, read-out: free fraction in plasma) came to 0.0754. Also, the IC50 in the series on B-cell activation worked out at 41 ± 11.7 nM.
